Where “and” joins values, the source holds several entries; their conditions need not be identical. Identical values can stand only once. Like-named read-outs stand apart in the source and are kept apart here. Marks after values point to notes of the source that are not given here. Ends that are not written are not given here.
What was measured:
[1] = tested on: Staphylococcus aureus (ATCC 25923)
[2] = tested on: Staphylococcus aureus (ATCC 25923); conditions: ATCC 25923, 10 h
[3] = tested on: Mycobacterium tuberculosis H37Rv (ATCC 27294); conditions: 24 h
[4] = tested on: Escherichia coli (ATCC 25922)
human red blood cells = assay: Hemolytic assay; format: cell-based; conditions: 1 h at room temperature; for IC50: human red blood cells, absorbance 570 nm, vs 10% Triton X-100, mean and 95% confidence intervals, NO = no observed hemolytic activity at 100 µM, read-out: Hemolysis (IC50); for hemolysis of human erythrocytes: relative to 10% Triton X-100, average of at least four independent experiments
Experimental: Hemolytic activity was determined by incubating suspensions of human red blood cells with serial dilutions of each selected peptides. Red blood cells were rinsed several times in PBS by centrifugation for 3 min at 3,000 g until the OD of the supernatant reached the OD of the control (PBS only). Red blood cells were counted by a hemocytometer and adjusted to 7.7×10^6±0.3×10^6 cells/mL. Red blood cells were then incubated at room temperature for 1 h in 10% Triton X-100 (positive control), in PBS (blank), or with amphipathic peptides at concentrations of 0.4, 0.8, 1.6, 3.1, 6.2, 12.5 and 25 µM, only for Pin2 [14] and Pin2 [17] the 50 and 100 µM concentrations were evaluated. The samples were then centrifuged at 10,000 g for 5 min, the supernatant was separated from the pellet, and its absorbance measured at 570 nm. The relative optical density compared to that of the suspension treated with 10% Triton X-100 was defined as the percentage of hemolysis.
The experimental values represent means ± standard deviations. The hemolytic constants (IC50) were obtained using a non-linear regression where the data was fit to a Boltzmann sigmoid equation. To determine statistically significant differences, an analysis of variance (ANOVA) followed by post hoc testing using the Tukey's method was performed using the software package Prism 4 (GraphPad, Inc., USA). Statistical significances were accepted at p<0.05.

[5] = tested on: Escherichia coli (ATCC 25922); conditions: ATCC 25922, 10 h
[6] = tested on: Mycobacterium tuberculosis H37Rv (ATCC 27294); conditions: literature value ref Rastogi, et al., 1996 [55]; cited from earlier work

| Compound | MIC S. aureus [1] [µM] | MIC S. aureus [2] | MIC Mycobacterium tuberculosis H37Rv [3] [µM] | MIC E. coli [4] [µM] | IC50 (human red blood cells) [µM] | hemolysis of human erythrocytes (human red blood cells; peptide at 25 µM) [%] | MIC E. coli [5] | hemolysis of human erythrocytes (human red blood cells; peptide at 100 µM) [%] | MIC Mycobacterium tuberculosis H37Rv [6] |
| --- | --- | --- | --- | --- | --- | --- | --- | --- | --- |
| FWGALAKGALKLIGSLFSSFSKKD [Pin2 [G]] | 12.5 | 12.5 µM | 18.7 | 12.5 | 1.4 | 100 | 12.5 µM | – | – |
| FWGLKGLKKFSKKL [Pin2 [14]] | >300 | >25 ^† µM | 11.92 ± 3.7 | 25 | – | – | 25 µM | 25 | – |
| FWGLKGLKGPGKFSKKL [Pin2 [17]] | 80 | >25 µM | – | 25 | – | – | >25 ^† µM | – | – |
| FWGALAKGALKLIPSLFSSFSKKD [Pin2, Pandinin 2, reference compound] | 37.5 | 12.5 µM | 22.1 ± 8.6 | 18.8 | 3.3 | 91 | 12.5 µM | – | – |
| CC[C@@H](CO)NCCN[C@@H](CC)CO [Ethambutol] | – | – | – | – | – | – | – | – | 0.5 µg/mL and 2.5 µM |
| CO[C@H]1/C=C/O[C@@]2(C)Oc3c(C)c(O)c4c(O)c(c(/C=N/N5CCN(C)CC5)c(O)c4c3C2=O)NC(=O)/C(C)=C\C=C\[C@H](C)[C@H](O)[C@@H](C)[C@@H](O)[C@@H](C)[C@H](OC(C)=O)[C@@H]1C [Rifampicin] | – | – | – | – | – | – | – | – | 0.4 µg/mL and 0.5 µM |
| FWGALAKGALKLIGPGSLFSSFSKKD [Pin2 [GPG]] | 25 | 12.5 µM | 29 ± 9 | 25 | – | 30 | 12.5 µM | – | – |

Source: article PMC4096598 (PLoS ONE, 2014)
